From US20220142897A1, “Formulation and Use Thereof in the Treatment of Keratosis Pilaris” (priority 2020, published 2022)

Key:
[1] = test system: sebaceous glands; conditions: cited from earlier work
[2] = test system: sebaceous glands; test: Stimulation of sebaceous glands / sebum production by topical DHEA; assay type: in vivo, human
Description: The main component of the current invention is DHEA, a steroid hormone. Without being bound by theory, it is hypothesized that DHEA in the current invention serves to simulate the production of sebaceous glands. […] In contrast, the upper limits of DHEA in the current invention can be as high as 100%.
Daily applications of DHEA can increase the output of sebaceous glands by up to 60% within 3 months. This makes DHEA a particularly viable and effective treatment for increasing sebum output in those with KP. Patients with KP typically have widespread sebaceous gland atrophy in the affected areas of the skin, causing downstream symptoms of skin dryness, inflammation, and could potentially be the root cause of the keratin papules that develop. DHEA also is suspected to help modulate and regulate keratinocyte proliferation. It is suspected that by regulating keratinocytes in the follicular channel, the rate at which keratin blockages forms is reduced.

## C[C@]12CCC(=O)C[C@@H]1CC[C@@H]1[C@@H]2CC[C@]2(C)[C@@H](O)CC[C@@H]12 [DHT, dihydrotestosterone]
[1]; relative to DHEA
  potency to stimulate sebaceous gland to produce sebocytes: more potent than DHEA

## C[C@]12CC[C@H](O)CC1=CC[C@@H]1[C@@H]2CC[C@]2(C)C(=O)CC[C@@H]12 [DHEA, dehydroepiandrosterone]
[2]; 2% DHEA
  sebum production as observed by softness and oiliness: increase in sebum production
[2]; DHEA reduced to approximately 0.1%
  sebum production as observed by softness and oiliness: Such phenotypes are observed
[2]; concentrations of DHEA at less than 0.1%, clinical studies
  stimulation of the sebaceous glands: ineffective
[1]; daily applications, within 3 months
  increase of the output of sebaceous glands: up to 60%
[1]; low concentrations to avoid systemic circulation
  safety of continuous topical application: safe
